According to ChEMBL document CHEMBL1909046, “DrugMatrix in vitro pharmacology data”:

How the values were obtained:
[1] = DRUGMATRIX: Sigma2 radioligand binding (ligand: [3H] Ifenprodil); type: cell membranes, Rattus norvegicus, Wistar, Brain, Membrane; conditions: Not Active = under 50% inhibition at 10 µM
[2] = biological target: Substance-P receptor (Homo sapiens, UniProt P25103); type: cell membranes, CHO, Membrane; conditions: cho; also: in other assays of this panel Not Active means under 50% inhibition at 10 µM
[3] = biological target: T1, Polyunsaturated fatty acid lipoxygenase ALOX15 (Oryctolagus cuniculus, UniProt P12530); assay: biochemical; type: tissue-based, Reticulocytes; conditions: reticulocytes;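 also: inhibition of 15-lipoxygenase enzyme activity measured with linoleic acid as the substrate; in other assays of this panel Not Active means under 50% inhibition at 10 µM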
T1 sequence (P12530 whole entry): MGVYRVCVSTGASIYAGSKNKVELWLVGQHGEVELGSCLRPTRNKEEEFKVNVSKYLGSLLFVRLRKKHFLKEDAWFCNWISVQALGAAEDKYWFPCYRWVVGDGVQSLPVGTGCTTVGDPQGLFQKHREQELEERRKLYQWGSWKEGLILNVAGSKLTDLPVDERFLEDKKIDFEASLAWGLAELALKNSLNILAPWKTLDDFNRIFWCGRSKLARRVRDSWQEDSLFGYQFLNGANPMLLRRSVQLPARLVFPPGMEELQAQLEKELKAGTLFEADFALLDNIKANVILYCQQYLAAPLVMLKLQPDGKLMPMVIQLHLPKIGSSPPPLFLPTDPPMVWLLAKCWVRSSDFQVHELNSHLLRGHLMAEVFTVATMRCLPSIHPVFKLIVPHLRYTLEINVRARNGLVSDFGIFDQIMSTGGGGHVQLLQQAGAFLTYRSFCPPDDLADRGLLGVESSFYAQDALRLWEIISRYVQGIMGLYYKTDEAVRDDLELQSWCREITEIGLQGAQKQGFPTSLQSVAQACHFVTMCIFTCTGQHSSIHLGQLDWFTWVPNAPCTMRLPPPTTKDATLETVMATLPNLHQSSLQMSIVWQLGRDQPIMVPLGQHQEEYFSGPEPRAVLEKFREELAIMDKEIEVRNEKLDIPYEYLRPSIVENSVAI

[4] = biological target: Protein phosphatase 3 catalytic subunit alpha (Homo sapiens, UniProt Q08209); set-up: species or system Escherichia coli;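 also: inhibition of calcineurin (PP2B) enzyme activity, measured with DiFMUP as the substrate; in other assays of this panel Not Active means under 50% inhibition at 10 µM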
[5] = biological target: 5-hydroxytryptamine receptor 1B (Rattus norvegicus, UniProt P28564); type: cell membranes, Wistar, Cerebral cortex, Membrane; also: in other assays of this panel Not Active means under 50% inhibition at 10 µM
[6] = DRUGMATRIX: Glutamate, Kainate radioligand binding (ligand: [3H] Kainic acid); type: cell membranes, Rattus norvegicus, Wistar, Brain, Membrane; conditions: Not Active = under 50% inhibition at 10 µM
[7] = biological target: cGMP-specific 3',5'-cyclic phosphodiesterase (Homo sapiens, UniProt O76074); assay: DRUGMATRIX: Phosphodiesterase PDE5 enzyme inhibition (substrate: [3H]cGMP + cGMP); type: tissue-based, Platelet; conditions: platelet; Not Active = under 50% inhibition at 10 µM
[8] = biological target: T2, Cytochrome P450 2A6 (Homo sapiens, UniProt P11509); conditions: bti-tn-5b1-4; also: in other assays of this panel Not Active means under 50% inhibition at 10 µM
T2 sequence (P11509 whole entry): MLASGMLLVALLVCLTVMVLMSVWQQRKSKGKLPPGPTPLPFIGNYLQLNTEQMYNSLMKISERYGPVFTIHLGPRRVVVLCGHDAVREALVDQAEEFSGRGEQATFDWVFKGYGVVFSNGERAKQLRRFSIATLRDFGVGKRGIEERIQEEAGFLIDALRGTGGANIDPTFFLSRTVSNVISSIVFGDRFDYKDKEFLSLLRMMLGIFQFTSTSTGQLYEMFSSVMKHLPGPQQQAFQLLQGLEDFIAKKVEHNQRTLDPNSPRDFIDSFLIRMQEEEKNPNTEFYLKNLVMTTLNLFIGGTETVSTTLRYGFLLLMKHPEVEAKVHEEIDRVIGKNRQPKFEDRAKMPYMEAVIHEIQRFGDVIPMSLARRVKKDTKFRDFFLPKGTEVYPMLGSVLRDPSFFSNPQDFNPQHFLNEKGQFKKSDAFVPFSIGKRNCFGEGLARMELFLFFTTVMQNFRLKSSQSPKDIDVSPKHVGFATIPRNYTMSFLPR

[9] = DRUGMATRIX: Phorbol Ester radioligand binding (ligand: [3H] PDBu); type: cell membranes, Mus musculus, ICR, Brain, Membrane; conditions: Not Active = under 50% inhibition at 10 µM
[10] = biological target: Matrix metalloproteinase-9 (Homo sapiens, UniProt P14780); type: cell-based
[11] = biological target: Sigma non-opioid intracellular receptor 1 (Homo sapiens, UniProt Q99720); assay: DRUGMATRIX: Sigma1 radioligand binding (ligand: [3H] Haloperidol); type: cell membranes, Jurkat, Membrane; conditions: jurkat; Not Active = under 50% inhibition at 10 µM
[12] = biological target: Platelet-activating factor receptor (Homo sapiens, UniProt P25105); assay: biochemical; type: tissue-based; conditions: platelet; also: in other assays of this panel Not Active means under 50% inhibition at 10 µM
[13] = DRUGMATRIX: GABAA, Flunitrazepam, Central radioligand binding (ligand: [3H] Flunitrazepam); type: cell membranes, Rattus norvegicus, Wistar, Brain, Membrane; conditions: Not Active = under 50% inhibition at 10 µM
[14] = biological target: T3, Leukotriene C4 synthase (Cavia porcellus, UniProt A6XA80); assay: biochemical; type: tissue-based, Lung
T3 sequence (A6XA80 whole entry): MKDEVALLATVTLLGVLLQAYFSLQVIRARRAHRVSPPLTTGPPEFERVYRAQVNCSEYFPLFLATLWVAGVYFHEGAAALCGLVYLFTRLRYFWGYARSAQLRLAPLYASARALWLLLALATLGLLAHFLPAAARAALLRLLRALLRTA

5-hydroxytryptamine receptor 1B, sequence (P28564 whole entry): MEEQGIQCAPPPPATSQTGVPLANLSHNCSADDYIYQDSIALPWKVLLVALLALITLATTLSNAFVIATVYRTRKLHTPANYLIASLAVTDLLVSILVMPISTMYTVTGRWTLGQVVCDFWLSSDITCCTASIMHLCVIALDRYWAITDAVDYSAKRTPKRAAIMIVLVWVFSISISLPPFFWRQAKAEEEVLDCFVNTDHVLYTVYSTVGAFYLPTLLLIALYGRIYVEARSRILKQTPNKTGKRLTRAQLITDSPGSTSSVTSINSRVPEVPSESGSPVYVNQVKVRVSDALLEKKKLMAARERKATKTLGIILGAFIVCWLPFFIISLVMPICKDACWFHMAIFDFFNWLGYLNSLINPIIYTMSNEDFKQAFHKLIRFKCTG
Substance-P receptor, sequence (P25103 whole entry): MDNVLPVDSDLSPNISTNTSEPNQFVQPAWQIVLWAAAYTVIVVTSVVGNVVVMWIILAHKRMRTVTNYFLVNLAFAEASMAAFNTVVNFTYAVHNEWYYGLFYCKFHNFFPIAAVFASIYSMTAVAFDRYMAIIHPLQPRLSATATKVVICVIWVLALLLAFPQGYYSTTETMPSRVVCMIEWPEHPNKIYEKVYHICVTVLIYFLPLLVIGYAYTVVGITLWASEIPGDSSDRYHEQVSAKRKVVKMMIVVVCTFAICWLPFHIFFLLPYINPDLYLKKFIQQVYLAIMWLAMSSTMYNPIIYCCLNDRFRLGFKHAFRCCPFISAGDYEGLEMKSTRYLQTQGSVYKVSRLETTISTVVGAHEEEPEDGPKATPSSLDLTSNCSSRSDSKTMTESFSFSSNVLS
Platelet-activating factor receptor, sequence (P25105 whole entry): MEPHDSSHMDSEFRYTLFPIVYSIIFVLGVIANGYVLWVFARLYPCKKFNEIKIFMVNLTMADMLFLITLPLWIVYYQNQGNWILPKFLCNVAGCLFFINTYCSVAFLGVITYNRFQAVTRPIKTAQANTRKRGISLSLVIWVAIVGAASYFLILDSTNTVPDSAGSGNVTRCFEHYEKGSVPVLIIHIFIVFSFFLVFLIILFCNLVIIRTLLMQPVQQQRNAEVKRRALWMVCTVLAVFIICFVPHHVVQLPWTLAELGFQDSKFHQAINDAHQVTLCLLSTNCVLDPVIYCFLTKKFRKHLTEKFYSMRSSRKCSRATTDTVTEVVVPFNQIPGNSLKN
Sigma non-opioid intracellular receptor 1, sequence (Q99720 whole entry): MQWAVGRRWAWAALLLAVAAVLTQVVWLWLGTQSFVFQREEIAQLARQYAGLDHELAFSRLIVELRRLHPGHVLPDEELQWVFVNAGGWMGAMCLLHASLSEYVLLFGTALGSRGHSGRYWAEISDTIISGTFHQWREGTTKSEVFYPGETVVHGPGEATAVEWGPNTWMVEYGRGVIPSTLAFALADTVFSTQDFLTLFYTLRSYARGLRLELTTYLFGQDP
Matrix metalloproteinase-9, sequence (P14780 whole entry): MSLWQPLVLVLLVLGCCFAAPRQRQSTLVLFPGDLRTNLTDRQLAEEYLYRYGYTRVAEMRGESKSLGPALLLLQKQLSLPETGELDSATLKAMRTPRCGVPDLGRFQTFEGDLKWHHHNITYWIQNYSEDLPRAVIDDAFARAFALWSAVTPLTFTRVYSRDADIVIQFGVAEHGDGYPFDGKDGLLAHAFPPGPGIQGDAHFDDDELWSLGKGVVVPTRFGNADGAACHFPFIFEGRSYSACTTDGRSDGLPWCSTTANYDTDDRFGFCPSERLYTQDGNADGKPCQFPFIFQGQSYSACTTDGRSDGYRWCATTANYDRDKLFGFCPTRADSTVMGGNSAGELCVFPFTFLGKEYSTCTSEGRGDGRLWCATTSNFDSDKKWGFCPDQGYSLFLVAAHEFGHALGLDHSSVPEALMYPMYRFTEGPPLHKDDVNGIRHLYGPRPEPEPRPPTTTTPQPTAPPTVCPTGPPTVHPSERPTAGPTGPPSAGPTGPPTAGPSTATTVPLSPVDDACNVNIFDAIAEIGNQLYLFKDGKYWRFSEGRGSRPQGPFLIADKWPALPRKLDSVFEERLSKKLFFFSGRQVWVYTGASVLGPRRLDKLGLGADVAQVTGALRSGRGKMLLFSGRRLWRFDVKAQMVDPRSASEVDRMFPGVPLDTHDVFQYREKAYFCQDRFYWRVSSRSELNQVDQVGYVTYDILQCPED

CC[N+](CC)(CC)CCOc1cccc(OCC[N+](CC)(CC)CC)c1OCC[N+](CC)(CC)CC.[I-].[I-].[I-] [GALLAMINE TRIETHIODIDE]
Not Active: IC50 [1] | Ki [1] | IC50 [2] | IC50 [3] | IC50 [4] | IC50 [5] | IC50 [6] | Ki [6] | IC50 [7] | IC50 [8] | Ki [8] | IC50 [9] | Ki [9] | IC50 [10] | IC50 [11] | IC50 [12] | IC50 [13] | Ki [13] | IC50 [14]

CCCSc1ccc2nc(NC(=O)OC)[nH]c2c1 [ALBENDAZOLE]
Not Active: IC50 [1] | Ki [1] | IC50 [2] | IC50 [3] | IC50 [4] | IC50 [5] | IC50 [6] | Ki [6] | IC50 [7] | IC50 [8] | Ki [8] | IC50 [9] | Ki [9] | IC50 [10] | IC50 [11] | IC50 [12] | IC50 [13] | Ki [13] | IC50 [14]

CC1(C)[C@@H](O[C@H]2O[C@H](C(=O)O)[C@@H](O)[C@H](O)[C@H]2O[C@@H]2O[C@H](C(=O)O)[C@@H](O)[C@H](O)[C@H]2O)CC[C@]2(C)[C@H]3C(=O)C=C4[C@@H]5C[C@@](C)(C(=O)O)CC[C@]5(C)CC[C@@]4(C)[C@]3(C)CC[C@@H]12 [GLYCYRRHIZIN]
Not Active: IC50 [1] | Ki [1] | IC50 [2] | IC50 [3] | IC50 [4] | IC50 [5] | IC50 [6] | Ki [6] | IC50 [7] | IC50 [8] | Ki [8] | IC50 [9] | Ki [9] | IC50 [10] | IC50 [11] | IC50 [12] | IC50 [13] | Ki [13] | IC50 [14]

O=P1(NCCCl)OCCCN1CCCl (configuration not stated) [IFOSFAMIDE]
Not Active: IC50 [1] | Ki [1] | IC50 [2] | IC50 [3] | IC50 [4] | IC50 [5] | IC50 [6] | Ki [6] | IC50 [7] | IC50 [9] | Ki [9] | IC50 [10] | IC50 [11] | IC50 [12] | IC50 [13] | Ki [13] | IC50 [14]

CC1(C)S[C@@H]2[C@H](NC(=O)[C@H](N)c3ccc(O)cc3)C(=O)N2[C@H]1C(=O)O [AMOXICILLIN]
Not Active: IC50 [1] | Ki [1] | IC50 [2] | IC50 [3] | IC50 [4] | IC50 [5] | IC50 [6] | Ki [6] | IC50 [7] | IC50 [8] | Ki [8] | IC50 [9] | Ki [9] | IC50 [10] | IC50 [11] | IC50 [12] | IC50 [13] | Ki [13] | IC50 [14]

COc1ccc([C@@H]2Sc3ccccc3N(CCN(C)C)C(=O)[C@@H]2OC(C)=O)cc1 [DILTIAZEM]
Not Active: IC50 [1] | Ki [1] | IC50 [2] | IC50 [3] | IC50 [4] | IC50 [5] | IC50 [6] | Ki [6] | IC50 [7] | IC50 [8] | Ki [8] | IC50 [9] | Ki [9] | IC50 [10] | IC50 [11] | IC50 [12] | IC50 [13] | Ki [13] | IC50 [14]

N=C(N)NCCCCNC(=N)N.O=S(=O)(O)O [ARCAINE SULFATE]
Not Active: IC50 [1] | Ki [1] | IC50 [2] | IC50 [3] | IC50 [4] | IC50 [5] | IC50 [6] | Ki [6] | IC50 [7] | IC50 [8] | Ki [8] | IC50 [9] | Ki [9] | IC50 [10] | IC50 [11] | IC50 [12] | IC50 [13] | Ki [13] | IC50 [14]

Oc1cccc2cccnc12 [OXYQUINOLINE]
Not Active: IC50 [1] | Ki [1] | IC50 [2] | IC50 [3] | IC50 [4] | IC50 [5] | IC50 [6] | Ki [6] | IC50 [7] | IC50 [8] | Ki [8] | IC50 [9] | Ki [9] | IC50 [10] | IC50 [11] | IC50 [12] | IC50 [13] | Ki [13] | IC50 [14]

CC(C)NC[C@H](O)COc1cccc2[nH]ccc12
Not Active: IC50 [1] | Ki [1] | IC50 [2] | IC50 [3] | IC50 [4] | IC50 [5] | IC50 [6] | Ki [6] | IC50 [7] | IC50 [9] | Ki [9] | IC50 [10] | IC50 [11] | IC50 [12] | IC50 [13] | Ki [13] | IC50 [14]
